This is an account of results in ChEMBL document CHEMBL5729568, “Ras inhibitors” (2023).

Assay [1] can be described thus: (§1) Biochemical Assay: A variety of Ras proteins may be inhibited by compounds of the present invention (e.g., K-Ras, N-Ras, H-Ras, and mutants thereof at positions 12, 13 and 61, such as G12C, G12D, G12V, G12S, G13C, G13D, and Q61L, and others described herein). The purpose of this biochemical assay is to measure the ability of test compounds to covalently label nucleotide-loaded K-Ras isoforms. […] The sample is incubated at 25? C. for a time period of up to 24 hours prior to quenching by the addition of 10 uL of 5% Formic Acid. Quenched samples are centrifuged at 15000 rpm for 15 minutes in a benchtop centrifuge before injecting a 10 uL aliquot onto a reverse phase C4 column and eluting into the mass spectrometer with an increasing acetonitrile gradient in the mobile phase. Analysis of raw data may be carried out using Waters MassLynx MS software, with % bound calculated from the deconvoluted protein peaks for labeled and unlabeled K-Ras.

A short description of assay [2]: as §1. The source holds these as a separate data set.
Assay [3] in a line: as §1. The source holds these as a separate data set.
Assay [4] can be described thus: as §1. The source holds these as a separate data set.
A short description of assay [5]: as §1. The source holds these as a separate data set.
Assay [6] can be described thus: as §1. This is another data set of the same source.
The nature of assay [7]: as §1. This is another data set of the same source.

The structures appear in SMILES notation. Bounds are passed on as bounds.

As a reminder, the IC50 is the point on the concentration scale where inhibition reaches its midpoint. Consider `C=CC(=O)N1CCO[C@H]2CN(C(=O)N(C)[C@H](C(=O)N[C@H]3Cc4cc(C(F)F)cc(n4)-c4ccc5c(c4)c(c(-c4cccnc4C(C)OC)n5CC(F)(F)F)CC(C)(C)COC(=O)[C@@H]4CCCN(N4)C3=O)C(C)C)C[C@H]21` (some centres undefined), for which the IC50 entry was “in the range around 5.5 µM” in assay [1]; “in the range around 0.055 µM” in assay [2]; “in the range around 5.5 µM” in assay [3]; “in the range around 5.5 µM” in assay [4]; “in the range around 5.5 µM” in assay [5]; “in the range around 550 nM” in assay [6]. In assay [7], the half-inhibitory concentration (IC50) result was “in the range around 0.55 µM”.
As to `COC(C)c1ncccc1-c1c2c3cc(ccc3n1CC(F)(F)F)-c1cccc(c1)C[C@H](NC(=O)[C@@H](COC1CN(C(=O)C#CC(C)(C)N(C)C)C1)C(C)C)C(=O)N1CCC[C@H](N1)C(=O)OCC(C)(C)C2` (some centres undefined), the IC50 in assay [1] was > 10 µM; in assay [2] it was “in the range around 5.5 µM”; in assay [3] it was “in the range around 5.5 µM”; in assay [4], “in the range around 5.5 µM”; in assay [5], > 10 µM; in assay [6], < 10 nM. Also, the IC50 result in assay [7] is “in the range around 5.5 µM”.
`C=CC(=O)N1CCOC2(CCN(C(=O)N(C)[C@H](C(=O)N[C@H]3Cc4cc(CF)cc(c4)-c4ccc5c(c4)c(c(-c4cccnc4C(C)OC)n5CC(F)(F)F)CC(C)(C)COC(=O)[C@@H]4CCCN(N4)C3=O)C(C)C)CC2)C1` (some centres undefined): the IC50 result is “in the range around 0.55 µM” in assay [1]; “in the range around 0.055 µM” in assay [2]; “in the range around 0.55 µM” in assay [3]; “in the range around 0.55 µM” in assay [4]; “in the range around 0.55 µM” in assay [5]; “in the range around 550 nM” in assay [6]. For the same compound, the concentration for half-maximal inhibition (IC50) entry in assay [7] is “in the range around 0.055 µM”.
In the case of `CCn1c(-c2cccnc2C(C)OC)c2c3cc(ccc31)-c1csc(n1)C[C@H](NC(=O)CCOC1CN(C(=O)C#CC(C)(C)N(C)C)C1)C(=O)N1CCC[C@H](N1)C(=O)OCC(C)(C)C2` (some centres undefined), the IC50 entry is “in the range around 5.5 µM” in assay [1]; “in the range around 5.5 µM” in assay [2]; “in the range around 5.5 µM” in assay [3]; “in the range around 5.5 µM” in assay [4]; > 10 µM and in the range around 5.5 µM in assay [5]; < 10 nM in assay [6]. Besides, in assay [7], the IC50 result was “in the range around 5.5 µM”.
Regarding `COC(C)c1ncccc1-c1c2c3cc(ccc3n1CC(F)(F)F)-c1csc(n1)C[C@H](NC(=O)[C@@H](COC1CN(C(=O)C#CC(C)(C)N(C)C)C1)C(C)C)C(=O)N1CCC[C@H](N1)C(=O)OCC(C)(C)C2` (some centres undefined), the concentration for half-maximal inhibition (IC50) in assay [1] is > 10 µM; in assay [2], “in the range around 5.5 µM”; in assay [3] it was “in the range around 5.5 µM”; in assay [4], “in the range around 5.5 µM”; in assay [5], “in the range around 5.5 µM”; in assay [6] it was < 10 nM. For the same compound, the concentration for half-maximal inhibition (IC50) result in assay [7] is “in the range around 5.5 µM”.
Consider `COC(C)c1ncccc1-c1c2c3cc(ccc3n1CC(F)(F)F)-c1cccc(c1)CN(NC(=O)[C@@H](COC1CN(C(=O)C#CC(C)(C)N(C)C)C1)C(C)C)C(=O)N1CCC[C@H](N1)C(=O)OCC(C)(C)C2` (some centres undefined), for which the half-maximal inhibitory concentration (IC50) entry in assay [1] is “in the range around 5.5 µM”; in assay [2] it was “in the range around 0.55 µM”; in assay [3], “in the range around 5.5 µM”; in assay [4], “in the range around 5.5 µM”; in assay [5], “in the range around 5.5 µM”; in assay [6], < 10 nM. Also, the 50% inhibitory concentration (IC50) result in assay [7] is “in the range around 5.5 µM”.
Regarding `C=CC(=O)Nc1ncc(C(=O)N(C)[C@H](C(=O)N[C@H]2Cc3cccc(c3)-c3ccc4c(c3)c(c(-c3cccnc3C(C)OC)n4CC)CC(C)(C)COC(=O)[C@@H]3CCCN(N3)C2=O)C(C)C)n1C` (some centres undefined), the IC50 entry in assay [1] was “in the range around 5.5 µM”; in assay [2], < 0.01 µM; in assay [3], “in the range around 5.5 µM”; in assay [4] it was “in the range around 5.5 µM”; in assay [5], “in the range around 5.5 µM”; in assay [6], < 10 nM. Besides, the IC50 result in assay [7] was “in the range around 0.55 µM”.
Take `C=CC(=O)N1CCO[C@H]2CN(C(=O)N(C)[C@H](C(=O)N[C@H]3C[C@H]4CN(CCO4)c4ccc5c(c4)c(c(-c4cccnc4C(C)OC)n5CC)CC(C)(C)COC(=O)[C@@H]4CCCN(N4)C3=O)C(C)C)C[C@H]21` (some centres undefined): the IC50 entry in assay [1] was “in the range around 5.5 µM”; in assay [2], “in the range around 0.55 µM”; in assay [3] it was “in the range around 5.5 µM”; in assay [4], “in the range around 5.5 µM”; in assay [5] it was > 10 µM and in the range around 5.5 µM; in assay [6], “in the range around 550 nM”. In addition, the 50% inhibitory concentration (IC50) result in assay [7] was “in the range around 5.5 µM”.
As for `CCn1c(-c2cccnc2C(C)OC)c2c3cc(ccc31)N1CCO[C@@H](C[C@H](NC(=O)[C@H](C(C)C)N(C)C(=O)C3(F)CCN(C(=O)/C=C/CN(C)C)CC3)C(=O)N3CCC[C@H](N3)C(=O)OCC(C)(C)C2)C1` (some centres undefined), the 50% inhibitory concentration (IC50) result is “in the range around 5.5 µM” in assay [1]; “in the range around 0.55 µM” in assay [2]; “in the range around 5.5 µM” in assay [3]; “in the range around 5.5 µM” in assay [4]; > 10 µM in assay [5]; “in the range around 55 nM” in assay [6]. The concentration for half-maximal inhibition (IC50) entry in assay [7] was “in the range around 5.5 µM”.
For `CCn1c(-c2cccnc2C(C)OC)c2c3cc(ccc31)N1CCC[C@@H](C[C@H](NC(=O)[C@@H](COC3CN(C(=O)C#CC(C)(C)N(C)C)C3)C(C)C)C(=O)N3CCC[C@H](N3)C(=O)OCC(C)(C)C2)C1` (some centres undefined), the IC50 in assay [1] was > 10 µM; in assay [2] it was > 10 µM; in assay [3] it was > 10 µM; in assay [4], > 10 µM; in assay [5], > 10 µM; in assay [6] it was “in the range around 55 nM”. In addition, the IC50 in assay [7] was > 10 µM.
As for `C=CC(=O)Nc1cnc(OC[C@H](C(=O)N[C@H]2Cc3cccc(c3)-c3ccc4c(c3)c(c(-c3cccnc3C(C)OC)n4CC)CC(C)(C)COC(=O)[C@@H]3CCCN(N3)C2=O)C(C)C)n1C` (some centres undefined), the IC50 result in assay [1] is “in the range around 5.5 µM”; in assay [2], “in the range around 0.055 µM”; in assay [3], “in the range around 5.5 µM”; in assay [4] it was “in the range around 5.5 µM”; in assay [5], “in the range around 5.5 µM”; in assay [6] it was < 10 nM. For the same compound, the IC50 result in assay [7] was “in the range around 0.55 µM”.
`C=CC(=O)N1CC(OC[C@H](C(=O)N[C@H]2Cc3cccc(c3)-c3ccc4c(c3)c(c(-c3cccnc3C(C)OC)n4CC(F)(F)F)CC(C)(C)COC(=O)[C@@H]3CCCN(N3)C2=O)C(C)C)C1` (some centres undefined): the concentration for half-maximal inhibition (IC50) result in assay [1] was “in the range around 5.5 µM”; in assay [2], “in the range around 0.55 µM”; in assay [3], “in the range around 5.5 µM”; in assay [4], “in the range around 5.5 µM”; in assay [5], “in the range around 5.5 µM”; in assay [6], “in the range around 55 nM”. The half-maximal inhibitory concentration (IC50) entry in assay [7] is “in the range around 0.55 µM”.
Consider `C=CC(=O)N1CC[C@H](C(=O)N(C)[C@H](C(=O)N[C@H]2C[C@H]3CN(CCO3)c3ccc4c(c3)c(c(-c3cccnc3C(C)OC)n4CC)CC(C)(C)COC(=O)[C@@H]3CCCN(N3)C2=O)C(C)C)C1` (some centres undefined), for which the IC50 in assay [1] was > 10 µM; in assay [2], “in the range around 5.5 µM”; in assay [3] it was “in the range around 5.5 µM”; in assay [4], “in the range around 5.5 µM”; in assay [5], > 10 µM; in assay [6], “in the range around 550 nM”. Besides, the IC50 in assay [7] was > 10 µM.
Regarding `C=CC(=O)N1CC(OC[C@H](C(=O)N[C@H]2C[C@H]3CN(CCO3)c3ccc4c(c3)c(c(-c3cccnc3C(C)OC)n4CC(F)(F)F)CC(C)(C)COC(=O)[C@@H]3CCCN(N3)C2=O)C(C)C)C1` (some centres undefined), the half-inhibitory concentration (IC50) in assay [1] was > 10 µM; in assay [2], “in the range around 5.5 µM”; in assay [3], “in the range around 5.5 µM”; in assay [4], “in the range around 5.5 µM”; in assay [5], > 10 µM; in assay [6], “in the range around 550 nM”. Moreover, the IC50 entry in assay [7] is “in the range around 5.5 µM”.
`COC(C)c1ncccc1-c1c2c3cc(ccc3n1CC(F)(F)F)N1CCO[C@@H](C[C@H](NC(=O)[C@@H](COC3CN(C(=O)C#CC(C)(C)N(C)C)C3)C(C)C)C(=O)N3CCC[C@H](N3)C(=O)OCC(C)(C)C2)C1` (some centres undefined): the half-inhibitory concentration (IC50) was > 10 µM in assay [1]; “in the range around 5.5 µM” in assay [2]; > 10 µM in assay [3]; “in the range around 5.5 µM” in assay [4]; > 10 µM in assay [5]; < 10 nM in assay [6]. The 50% inhibitory concentration (IC50) in assay [7] was > 10 µM.
Consider `CCn1c(-c2cccnc2C(C)OC)c2c3cc(ccc31)N1CCC[C@@H](C[C@H](NC(=O)[C@H](C(C)C)N(C)C(=O)[C@H]3CCN(C(=O)C#CC(C)(C)N4CCC4)C3)C(=O)N3CCC[C@H](N3)C(=O)OCC(C)(C)C2)C1` (some centres undefined), for which the 50% inhibitory concentration (IC50) is > 10 µM in assay [1]; > 10 µM in assay [2]; > 10 µM in assay [3]; > 10 µM in assay [4]; > 10 µM in assay [5]; “in the range around 55 nM” in assay [6]. Further, the IC50 in assay [7] was > 10 µM.
`C=CC(=O)N1CC[C@H](C(=O)N(C)C(C(=O)N[C@H]2C[C@H]3CN(CCO3)c3ccc4c(c3)c(c(-c3cccnc3C(C)OC)n4CC)CC(C)(C)COC(=O)[C@@H]3CCCN(N3)C2=O)C(C)C)C1` (some centres undefined): the concentration for half-maximal inhibition (IC50) in assay [1] is > 10 µM; in assay [2], “in the range around 5.5 µM”; in assay [3], “in the range around 5.5 µM”; in assay [4], “in the range around 5.5 µM”; in assay [5], > 10 µM; in assay [6], “in the range around 550 nM”. Moreover, the IC50 in assay [7] is > 10 µM.
